The values that follow come from patent US20100028420A1, “CONTROLLED RELEASE COMPOSITION AND PROCESS” (3M Innovative Properties Company, priority 2006, published 2010).

Read-outs that look alike come from different tables or passages of the source.

The series in a line: Titration of dispersed solid with sodium hydroxide (pKa from titration curve). Format: physicochemical. The note with it: for pKa: dispersion of the solid in deionized water. The protocol: The Comparative Compound (1.0 g) was dispersed in deionized water (199 mL) using a shear mixer/emulsifier (Silverson Model L4R, Silverson Machines, Ltd., Waterside, Chesham, Bucks, England) for approximately 5 minutes. Cresol red indicator (0.04 weight percent in water; 4 drops) was added to aid in end point detection. Samples were titrated (using a 50 mL buret with 0.1 mL graduation) with rapid stirring to maintain suspension of dispersed solid in the liquid medium (0.1 N analytical standard grade sodium hydroxide from Mallinckrodt Baker, Phillipsburg, N.J.) over a period of 1-3 hours. The dispersion became clear after 2 equivalents of base had been added, indicating conversion of the Comparative Compound to a compound corresponding to the righthand structure above. […] At higher concentrations, a liquid crystalline phase potentially useful for encapsulation of guest molecules is formed between a pH of about 7 and a pH of about 8. This phase forms at a steep end point transition of the titration curve, where even a small addition of base caused a significant change in pH (indicating a need for careful monitoring and control of the amount of base addition for use of the Comparative Compound in, for example, the encapsulation of pH-sensitive guest molecules).
Folic acid (1.0 g) was dispersed in deionized water (199 mL) using a Silverson L4R shear mixer/emulsifier for approximately 5 minutes. Cresol red indicator (0.04 weight percent in water; 4 drops) was added to aid in end point detection. Samples were titrated (using a 50 mL buret with 0.1 mL graduation) with rapid stirring to maintain suspension of dispersed solid in the liquid medium during the addition of base (0.1 N analytical standard grade sodium hydroxide from Mallinckrodt Baker, Phillipsburg, N.J.). The dispersion became clear after 2 equivalents of base had been added.
Folic acid (2.0 g) was dispersed in deionized water (198 mL) using a Silverson L4R shear mixer/emulsifier for approximately 5 minutes. Cresol red indicator (0.04 weight percent in water; 4 drops) was added to aid in end point detection. Samples were titrated (using a 50 mL buret with 0.1 mL graduation) with rapid stirring to maintain suspension of dispersed solid in the liquid medium during the addition of base (0.2 N analytical standard grade sodium hydroxide from Mallinckrodt Baker, Phillipsburg, N.J.). The dispersion became clear after 2 equivalents of base had been added.

Where [1] appears, read: 0.5 weight percent dispersion in deionized water, 0.1 N NaOH.

As a reminder, the pKa is the negative logarithm of the acid dissociation constant. As to `Nc1nc(=O)c2nc(CNc3ccc(C(=O)N[C@@H](CCC(=O)O)C(=O)O)cc3)cnc2[nH]1` [Folic acid], the pKa runs as follows: (0.5 weight percent dispersion in deionized water, 0.1 N NaOH, read-out: first pKa) ~5.8; (0.5 weight percent dispersion in deionized water, 0.1 N NaOH, read-out: second pKa) ~5.8; (1 weight percent dispersion in deionized water, 0.2 N NaOH, read-out: first pKa) ~6.1; (1 weight percent dispersion in deionized water, 0.2 N NaOH, read-out: second pKa) ~6.1.
In the case of `Cn1cc[n+](-c2nc(Nc3ccc(C(=O)O)cc3)nc(Nc3ccc(C(=O)O)cc3)n2)c1.[Cl-]` [Comparative Compound], under setting [1], the “first pKa” value is recorded as “about 3.2” and the “second pKa” value is recorded as “about 5.8”.
